These are literature values, as cited in patent publication US11220503B2, “Phthalazine derivatives, preparation method, pharmaceutical composition and usage thereof” (Shanghai SIMR Biotech Co., Ltd., priority 2015, dated 2022).

The test system of this series is α5-GABAA receptor. The settings on record: cited from earlier work.

As to `Cc1cc(-c2nncc3c(C(C)(C)C)c(OCc4ncnn4C)nn23)no1` [MRK016, 3-tert-butyl-7-(5-methylisoxazol-3-yl)-2-(1-methyl-1H-1,2,4-triazol-5-ylmethoxy) pyrazolo[1,5-d][1,2,4]triazine], the “blocking of the binding of (^3H) R0-15-1788 in brain” value was “could efficiently block the binding”.

As for `Cn1ncnc1COc1nn2c(-c3cc(CO)on3)nncc2c1C(C)(C)C` [MRK016-M3], the “blocking of the binding of (^3H) R0-15-1788 in brain” value is listed as “almost no blocking effect”.
